For assay [1], the target named is Large T antigen (Simian virus 40, UniProt P03070). It is filed as functional, Betapolyomavirus macacae.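 Also: Confirmatory-stage PubChem screen for compounds that inhibit SV40 T antigen.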
The test system of assay [2] is Vero. Briefly: viability of Vero cells under compound – cytotoxicity control for flavivirus capping enzyme inhibitors (AID 588742). It is filed as functional. As to conditions: Chlorocebus sabaeus.
Assay [3] deals with Beta-galactosidase (Escherichia coli, UniProt Q8VNN2). Briefly: detection-enzyme interference by beta-gal modulators – biochemical, E. coli enzyme, set 3, artefact control for CCR6 antagonist project, dose response (AID 504712). It is filed as functional.
In assay [4] the target is T1, Cysteine protease ATG4B (Homo sapiens, UniProt Q9Y4P1).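 Also: Fluorescence-based dose-response confirmation assay measuring inhibition of ATG4B activity.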
T1 sequence (Q9Y4P1 whole entry): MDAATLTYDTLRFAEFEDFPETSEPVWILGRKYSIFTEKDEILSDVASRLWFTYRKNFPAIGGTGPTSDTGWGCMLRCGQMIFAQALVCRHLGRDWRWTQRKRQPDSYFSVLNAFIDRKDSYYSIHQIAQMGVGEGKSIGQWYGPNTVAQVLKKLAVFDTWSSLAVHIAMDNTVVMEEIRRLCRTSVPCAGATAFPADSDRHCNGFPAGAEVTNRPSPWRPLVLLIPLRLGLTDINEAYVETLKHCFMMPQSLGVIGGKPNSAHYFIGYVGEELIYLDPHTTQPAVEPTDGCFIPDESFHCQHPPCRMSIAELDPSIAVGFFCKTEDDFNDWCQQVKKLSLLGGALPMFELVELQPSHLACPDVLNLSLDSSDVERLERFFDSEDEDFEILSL
Format: functional.

The target of assay [5] is Phospholipase A2 (Homo sapiens, UniProt P04054). It is filed as functional.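 Also: confirmatory dose-response counterscreen on phospholipase A2, testing hits that came from an ultra-high-throughput screen for ATG4B inhibitors.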
Assay [6] addresses T2, DNA repair protein RAD52 homolog (Homo sapiens, UniProt P43351).
T2 sequence (P43351 whole entry): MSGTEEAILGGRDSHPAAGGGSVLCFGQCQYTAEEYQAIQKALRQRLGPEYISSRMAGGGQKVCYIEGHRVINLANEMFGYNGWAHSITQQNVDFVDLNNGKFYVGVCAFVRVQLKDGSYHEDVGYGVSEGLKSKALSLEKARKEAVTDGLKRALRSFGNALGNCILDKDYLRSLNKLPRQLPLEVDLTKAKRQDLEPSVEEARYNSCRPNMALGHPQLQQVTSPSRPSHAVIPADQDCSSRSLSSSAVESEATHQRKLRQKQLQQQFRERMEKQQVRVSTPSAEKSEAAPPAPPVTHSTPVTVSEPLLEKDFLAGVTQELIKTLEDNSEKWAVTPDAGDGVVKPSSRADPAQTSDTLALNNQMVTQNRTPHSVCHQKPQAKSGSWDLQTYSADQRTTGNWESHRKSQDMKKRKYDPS
It is filed as functional, biochemical.

The target of assay [7] is T3, Ubiquitin-conjugating enzyme E2 N (Homo sapiens, UniProt P61088).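 Also: Dose-response confirmation in a TR-FRET assay detecting UBC13-driven polyubiquitin chain formation, inhibition measured.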
T3 sequence (P61088 whole entry): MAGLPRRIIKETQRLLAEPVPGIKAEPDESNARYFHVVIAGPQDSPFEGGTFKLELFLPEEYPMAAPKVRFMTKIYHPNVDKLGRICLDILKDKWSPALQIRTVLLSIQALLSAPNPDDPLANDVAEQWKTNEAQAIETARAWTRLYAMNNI
It is filed as functional.

Assay [8] deals with T4, Microphthalmia-associated transcription factor (Homo sapiens, UniProt O75030).
T4 sequence (O75030 whole entry): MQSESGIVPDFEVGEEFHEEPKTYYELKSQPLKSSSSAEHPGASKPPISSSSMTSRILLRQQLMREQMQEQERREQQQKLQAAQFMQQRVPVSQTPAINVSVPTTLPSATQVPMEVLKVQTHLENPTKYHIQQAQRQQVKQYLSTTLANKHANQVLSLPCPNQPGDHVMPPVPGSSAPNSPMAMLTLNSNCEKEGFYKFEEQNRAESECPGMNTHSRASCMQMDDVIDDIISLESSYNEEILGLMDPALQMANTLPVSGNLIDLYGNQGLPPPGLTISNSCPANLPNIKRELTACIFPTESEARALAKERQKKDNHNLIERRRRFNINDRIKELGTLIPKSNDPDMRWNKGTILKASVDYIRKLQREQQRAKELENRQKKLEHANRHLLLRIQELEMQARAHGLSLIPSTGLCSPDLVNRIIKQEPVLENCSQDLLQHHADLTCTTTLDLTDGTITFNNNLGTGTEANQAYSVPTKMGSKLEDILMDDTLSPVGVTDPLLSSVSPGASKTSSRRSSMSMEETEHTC
Briefly: reducers of TRPM1 reporter luminescence, concentration series – cell-based, SK-MEL-5, cherry-picked, set 3, MITF inhibitor project, dose response (AID 493073).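 Also: SK-MEL-5 melanoma cells with luciferase driven by the MITF target TRPM1 promoter.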 It is filed as functional.

Assay [9] has as its target T5, Replicative DNA helicase DnaB (Mycobacterium tuberculosis, UniProt P9WMR3).
T5 sequence (P9WMR3 whole entry): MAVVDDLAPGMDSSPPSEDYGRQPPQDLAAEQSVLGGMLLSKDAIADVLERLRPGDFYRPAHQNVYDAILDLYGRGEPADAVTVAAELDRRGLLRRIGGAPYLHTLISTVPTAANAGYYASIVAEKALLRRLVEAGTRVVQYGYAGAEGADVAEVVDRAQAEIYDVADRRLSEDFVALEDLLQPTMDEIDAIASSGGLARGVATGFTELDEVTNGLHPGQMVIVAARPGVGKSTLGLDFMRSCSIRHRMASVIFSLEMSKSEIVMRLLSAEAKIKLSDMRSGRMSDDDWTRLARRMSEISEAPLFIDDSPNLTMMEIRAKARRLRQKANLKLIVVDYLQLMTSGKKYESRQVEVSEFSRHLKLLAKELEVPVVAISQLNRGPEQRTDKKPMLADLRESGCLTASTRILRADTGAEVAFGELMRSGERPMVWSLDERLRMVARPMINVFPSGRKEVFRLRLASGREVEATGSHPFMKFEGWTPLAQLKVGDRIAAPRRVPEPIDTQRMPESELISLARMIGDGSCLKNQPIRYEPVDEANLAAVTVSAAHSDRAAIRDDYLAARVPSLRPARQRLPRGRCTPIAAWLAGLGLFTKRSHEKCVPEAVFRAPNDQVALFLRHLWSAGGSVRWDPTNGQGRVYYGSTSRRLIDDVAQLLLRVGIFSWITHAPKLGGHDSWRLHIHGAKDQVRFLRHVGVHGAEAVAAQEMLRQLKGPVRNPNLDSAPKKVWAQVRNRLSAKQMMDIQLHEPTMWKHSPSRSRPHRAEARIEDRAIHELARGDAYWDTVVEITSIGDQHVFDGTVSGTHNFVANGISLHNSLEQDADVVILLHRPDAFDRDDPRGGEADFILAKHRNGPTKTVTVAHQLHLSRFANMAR
The assay is described as follows: DnaB intein splicing inhibitors, dose response, biochemical, cell-free fluorescence (AID 449749). Format: functional.

For assay [10], the target named is T6, Protein RecA (Mycobacterium tuberculosis, UniProt P9WHJ3).
T6 sequence (P9WHJ3 whole entry): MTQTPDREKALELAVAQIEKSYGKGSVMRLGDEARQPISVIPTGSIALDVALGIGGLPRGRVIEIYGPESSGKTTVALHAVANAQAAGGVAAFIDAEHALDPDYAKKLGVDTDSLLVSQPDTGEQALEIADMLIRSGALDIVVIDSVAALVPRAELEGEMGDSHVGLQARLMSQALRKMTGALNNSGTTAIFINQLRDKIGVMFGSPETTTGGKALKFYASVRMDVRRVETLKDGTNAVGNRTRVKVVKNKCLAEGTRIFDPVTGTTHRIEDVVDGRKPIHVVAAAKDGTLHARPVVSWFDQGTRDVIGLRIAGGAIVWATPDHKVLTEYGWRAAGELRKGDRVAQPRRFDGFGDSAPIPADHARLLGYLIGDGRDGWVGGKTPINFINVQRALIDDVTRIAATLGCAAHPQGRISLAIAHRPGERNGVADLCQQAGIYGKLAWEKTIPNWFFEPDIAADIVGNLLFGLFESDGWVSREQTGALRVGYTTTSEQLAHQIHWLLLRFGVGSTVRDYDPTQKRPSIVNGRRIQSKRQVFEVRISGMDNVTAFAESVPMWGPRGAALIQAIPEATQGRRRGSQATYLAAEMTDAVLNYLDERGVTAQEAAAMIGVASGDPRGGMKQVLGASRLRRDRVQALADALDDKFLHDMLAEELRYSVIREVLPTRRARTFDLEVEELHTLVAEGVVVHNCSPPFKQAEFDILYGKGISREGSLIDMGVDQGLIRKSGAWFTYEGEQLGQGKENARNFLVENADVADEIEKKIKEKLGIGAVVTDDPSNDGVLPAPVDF
Briefly: Fluorescence Cell-Free Homogeneous Dose Retest to Identify Inhibitors of RecA-Intein Splicing Activity. [Related pubchem assays (depositor defined):AID2097, AID2223, AID489010, AID492950]. Format: functional.

Assay [11] deals with T7, RNA-binding protein pos-1 (Caenorhabditis elegans, UniProt G5EF15).
T7 sequence (G5EF15 whole entry): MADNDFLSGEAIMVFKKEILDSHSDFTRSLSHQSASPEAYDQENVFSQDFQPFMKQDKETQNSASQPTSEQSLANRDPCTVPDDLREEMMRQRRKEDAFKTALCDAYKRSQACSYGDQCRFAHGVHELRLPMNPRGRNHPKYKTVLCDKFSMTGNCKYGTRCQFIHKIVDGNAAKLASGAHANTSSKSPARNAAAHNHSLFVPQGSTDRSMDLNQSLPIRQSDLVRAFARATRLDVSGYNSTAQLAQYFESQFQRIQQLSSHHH
The assay is described as follows: disruptors of C. elegans POS-1 RNA interaction – biochemical, fluorescence polarization, dose response (AID 1964).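 Also: purified POS-1 fused to maltose binding protein made in E. coli; potency of compounds blocking POS-1 binding to fluorescent RNA.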 Background: Fluorescence polarisation rises when a labelled molecule tumbles more slowly, as on binding a larger partner.

The target of assay [12] is T8, Zinc finger protein mex-5 (Caenorhabditis elegans, UniProt Q9XUB2).
T8 sequence (Q9XUB2 whole entry): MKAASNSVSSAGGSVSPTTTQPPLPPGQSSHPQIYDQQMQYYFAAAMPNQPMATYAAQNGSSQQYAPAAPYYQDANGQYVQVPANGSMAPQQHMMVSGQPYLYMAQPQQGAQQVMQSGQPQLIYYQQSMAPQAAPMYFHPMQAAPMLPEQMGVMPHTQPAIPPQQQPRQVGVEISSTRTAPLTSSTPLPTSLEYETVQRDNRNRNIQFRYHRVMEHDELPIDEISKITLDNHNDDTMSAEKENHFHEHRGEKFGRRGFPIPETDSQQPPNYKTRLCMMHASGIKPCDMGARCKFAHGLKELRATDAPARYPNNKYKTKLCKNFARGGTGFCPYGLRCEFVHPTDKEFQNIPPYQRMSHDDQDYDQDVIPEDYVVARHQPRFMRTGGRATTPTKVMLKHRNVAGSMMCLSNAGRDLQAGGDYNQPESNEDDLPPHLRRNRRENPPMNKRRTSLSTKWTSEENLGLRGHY
The assay is described as follows: potency of MEX-5 RNA-binding blockers – biochemical, C. elegans, fluorescence polarization, dose response (AID 1960).

Activity calls are given as the source filed them.

Chain of Beta-galactosidase (Q8VNN2 whole entry): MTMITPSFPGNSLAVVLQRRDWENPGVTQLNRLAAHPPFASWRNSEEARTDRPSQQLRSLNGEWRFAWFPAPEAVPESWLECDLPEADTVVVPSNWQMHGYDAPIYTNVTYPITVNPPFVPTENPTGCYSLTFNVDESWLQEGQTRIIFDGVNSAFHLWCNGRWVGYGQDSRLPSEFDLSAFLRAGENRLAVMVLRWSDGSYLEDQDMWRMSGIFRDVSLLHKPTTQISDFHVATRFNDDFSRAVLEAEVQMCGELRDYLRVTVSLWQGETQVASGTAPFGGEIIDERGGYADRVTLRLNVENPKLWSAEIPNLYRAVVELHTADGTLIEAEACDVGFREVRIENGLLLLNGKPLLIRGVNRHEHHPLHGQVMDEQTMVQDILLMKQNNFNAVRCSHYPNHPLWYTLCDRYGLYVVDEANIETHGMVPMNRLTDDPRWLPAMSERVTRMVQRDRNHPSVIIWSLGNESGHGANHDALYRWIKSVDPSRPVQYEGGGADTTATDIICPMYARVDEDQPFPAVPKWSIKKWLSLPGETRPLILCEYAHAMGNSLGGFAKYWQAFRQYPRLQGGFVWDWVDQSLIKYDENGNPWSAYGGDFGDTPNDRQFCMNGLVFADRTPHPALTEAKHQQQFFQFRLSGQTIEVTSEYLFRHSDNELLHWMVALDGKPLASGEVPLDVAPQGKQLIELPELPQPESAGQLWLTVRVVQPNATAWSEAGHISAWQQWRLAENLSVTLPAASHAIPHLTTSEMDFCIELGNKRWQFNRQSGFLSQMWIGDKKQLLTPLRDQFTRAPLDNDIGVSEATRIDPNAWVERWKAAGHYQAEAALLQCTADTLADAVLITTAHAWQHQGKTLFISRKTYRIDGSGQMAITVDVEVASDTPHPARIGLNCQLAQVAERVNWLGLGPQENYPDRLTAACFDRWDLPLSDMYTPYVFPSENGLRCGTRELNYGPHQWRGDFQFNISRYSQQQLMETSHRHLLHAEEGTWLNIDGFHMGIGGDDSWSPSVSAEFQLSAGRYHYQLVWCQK
Chain of Large T antigen (P03070 whole entry): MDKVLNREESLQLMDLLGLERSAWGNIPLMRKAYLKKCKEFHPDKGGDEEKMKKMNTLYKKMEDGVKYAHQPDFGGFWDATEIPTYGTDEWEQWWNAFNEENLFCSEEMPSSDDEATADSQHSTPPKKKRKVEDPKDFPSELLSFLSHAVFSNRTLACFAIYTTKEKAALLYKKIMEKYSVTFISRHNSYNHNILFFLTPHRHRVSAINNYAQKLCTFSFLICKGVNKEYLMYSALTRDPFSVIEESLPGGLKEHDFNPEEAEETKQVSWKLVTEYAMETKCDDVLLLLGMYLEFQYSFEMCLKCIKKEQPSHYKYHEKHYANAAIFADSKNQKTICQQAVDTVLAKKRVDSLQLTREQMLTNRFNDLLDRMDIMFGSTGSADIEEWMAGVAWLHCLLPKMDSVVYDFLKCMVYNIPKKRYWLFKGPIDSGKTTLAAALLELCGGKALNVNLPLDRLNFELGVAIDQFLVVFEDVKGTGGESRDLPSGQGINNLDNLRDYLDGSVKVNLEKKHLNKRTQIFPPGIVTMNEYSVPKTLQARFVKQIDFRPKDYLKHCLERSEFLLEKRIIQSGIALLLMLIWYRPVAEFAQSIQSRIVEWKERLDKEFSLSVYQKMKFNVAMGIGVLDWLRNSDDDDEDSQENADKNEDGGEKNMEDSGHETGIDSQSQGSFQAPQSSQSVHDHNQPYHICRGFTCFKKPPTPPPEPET
Chain of Phospholipase A2 (P04054 whole entry): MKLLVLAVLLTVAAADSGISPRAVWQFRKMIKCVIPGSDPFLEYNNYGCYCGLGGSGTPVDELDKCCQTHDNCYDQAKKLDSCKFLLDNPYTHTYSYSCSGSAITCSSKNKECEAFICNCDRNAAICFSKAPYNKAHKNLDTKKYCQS

For `CCOc1c(Br)cc(CNc2ccc(N3CCOCC3)cc2)cc1OC`, the half-maximal inhibitory concentration (IC50) – broadly, the concentration at which inhibition is half-maximal – in assay [1] is 8.16 µM (active). Moreover, the 50% cytotoxic concentration (CC50) (usually the concentration giving 50% cytotoxicity) in [2] is > 40 µM (active).
On to `CCN(CC)CCNC(=S)NC(=O)c1cn(-c2ccccc2)nc1-c1ccc(OC)cc1`, for which the IC50 in assay [3] was > 66.6 µM (inactive). Moreover, the cytotoxic concentration (CC50) in assay [2] is > 40 µM (active).
Take `CC(=C\c1ccccc1)/C=C1/SC(=S)N(CCCC(=O)O)C1=O`: the half-maximal inhibitory concentration (IC50) in [4] is 17.1 µM (active); in [5], 34.7 µM (inactive).
Consider `COc1cccc(/C=C2/Sc3ccc(C(=O)NCCN4CCCC4)cc3NC2=O)c1`, for which the half-maximal activity concentration (AC50) (usually the concentration giving half of the maximal activity seen) in assay [6] was 4.28 µM (active); in [8], 17.9 µM (active). Also, the IC50 in [7] was > 20 µM (inactive).
As to `COC(=O)c1ccc(-n2c(C)cc(C(=O)CCl)c2C)cc1`, the values for the AC50 in assay [9] and in [8] were 5.18 µM (active) and 7.46 µM (active), respectively. The EC50 (in general, the concentration giving half of the maximal effect) was 22.7 µM (active) in assay [10], > 300 µM (not active) in assay [11] and > 300 µM (not active) in [12].

The record behind these values is ChEMBL document CHEMBL1201862, “PubChem BioAssay data set” (2004).
